Test results taken from ChEMBL document CHEMBL1201862, “PubChem BioAssay data set” (2004).
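Interpolation was linear, between the two tested concentrations surrounding the appropriate level; five concentrations were tested over 48 hours in 96-well plates. GI50: concentration for 50% inhibition of growth.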 Activity calls are given as the source filed them. Rule as the data show it: active = GI50 up to about 1.1 µM and inactive = higher.

Assays:
Test in all cases: inhibition of tumour cell growth, NCI panel, 48 h
ACHN = tested on: ACHN
NCI-H226 = tested on: NCI-H226
NCI-H460 = tested on: NCI-H460
NCI-H522 = tested on: NCI-H522
OVCAR-5 = tested on: OVCAR-5
RPMI-8226 = tested on: RPMI-8226
RXF 393 = tested on: RXF 393
SNB-75 = tested on: SNB-75
SR = tested on: SR
SW-620 = tested on: SW-620
UO-31 = tested on: UO-31
DMS-114 = tested on: DMS-114
HT-29 = tested on: HT-29
LXFL 529 = tested on: LXFL 529
M19-MEL = tested on: M19-MEL
Malme-3M = tested on: Malme-3M
SF-539 = tested on: SF-539
SK-MEL-5 = tested on: SK-MEL-5
SNB-19 = tested on: SNB-19
U-251 = tested on: U-251

Measured: GI50

CCOC(=O)/C=C/CC(C)(C)COC(C)=O
inactive: ACHN 6.75 µM | NCI-H226 2.45 µM | NCI-H460 > 10 µM | NCI-H522 > 10 µM | OVCAR-5 9.08 µM | RPMI-8226 > 10 µM | RXF 393 5.32 µM | SNB-75 5.11 µM | SR > 10 µM | SW-620 > 10 µM | UO-31 > 10 µM

O=C1C(Cl)N(c2cccc([N+](=O)[O-])c2)C1c1c[nH]c2ccccc12 (stereo not drawn)
inactive: DMS-114 15.1 µM | HT-29 17.1 µM | LXFL 529 6.25 µM | M19-MEL 18.1 µM | Malme-3M 2.36 µM | NCI-H460 12.1 µM | NCI-H522 16 µM | OVCAR-5 11.9 µM | RPMI-8226 16.9 µM | RXF 393 12.9 µM | SF-539 15.3 µM | SK-MEL-5 17 µM | SNB-19 23.9 µM | SNB-75 22.9 µM | SR 10.7 µM | SW-620 21.7 µM | U-251 22.2 µM | UO-31 17.5 µM

O=C1NP23(OCCO2)Oc2ccccc2C3(C(F)(F)F)O1 (stereo not drawn)
inactive: ACHN > 100 µM | DMS-114 > 100 µM | HT-29 > 100 µM | LXFL 529 > 100 µM | M19-MEL > 100 µM | Malme-3M > 100 µM | NCI-H226 > 100 µM | NCI-H460 78.3 µM | NCI-H522 > 100 µM | SF-539 > 100 µM | SK-MEL-5 > 100 µM | SNB-19 > 100 µM | SNB-75 > 100 µM | U-251 > 100 µM
